Read-outs that look alike come from different tables or passages of the source.
Assays:
[1] = test system: Hep3B2.1-7 human hepatic carcinoma; details: for Survival / Tumour weight, Mean: 21 days; for Tumour weight, Mean: SCID mice
Description: The orthotopic xenograft mouse model of Hep3B2.1–7 human hepatic carcinoma was previously established. Tumors were created by injection of 2.5 × 10^6 Hep3B2.1-7 cells (ATCC, RRID:CVCL_0326; Virginia, Manassas, USA) into the main lobe of the liver of anaesthetized female SCID mice (C.B-17-Igh-1bPrkdc(scid)). […] Treatments were continued for 21 days. Treatment of animals was ceased when the body weight dropped below 85% of that on entry of the study. Only mice culled at the termination date were used to determine the tumor weight. The experiment was conducted by vivoPharm pty Ltd (Bundoora, Australia) in accordance with the principles outlined in the “Australian Code of Practice for the Care and Use of Animals for Scientific Purposes”, 7th Edition, 2004 (National Health and Medical Research Council, Canberra, Australia). All procedures involving animals were reviewed and approved by the University of Adelaide Animal Ethics Committee. The study was carried out in compliance with the ARRIVE guidelines (http://www.nc3rs.org.uk/page.asp?id=1357). […]
invasion assay. The ODs of the invaded cells were normalized relative to ODs from tissue […]
Orthotopic xenograft mouse model
The orthotopic xenograft mouse model of Hep3B2.1-7 human hepatic carcinom a was previously established. The experiment was conducted by vivoPharm pty Ltd (Australia) in accordance with the principles outlined in the Australian Code of Practice for the Care and Use of Animals for Scientific Purposes, 7th Edition, 2004 (National Health and Medical Research Council). Procedures involving the care and use of animals in thi s study were reviewed and approved by the University of Adelaide Animal Ethics Committee. The study was carried out in compliance with the ARRIVE guidelines
(http://www.nc3rs.org.uk/page.asp?id=1357).
The animals were delivered to the test facility 1 1 days prior inoculation. On arrival, all animals received a detailed physical examination, including body weight measurement by the […]
technical staff. […] Each a nimal was identified by a transponder (Bar Code Data Systems Pty Ltd, Botany Bay, NSW, Australia) that could be scanned with a barcode reader (DataMars LabMax I). The transponder was implanted by subcutaneous injection between the shoulder blades while the mouse was under isoflurane-induced anaesthesia. The animals were housed in groups of six in micro-isolator cages (two cages per group). Each cage was clearly labelled with a cage card indicating study number, group, gender, and prescribed dose concentration and dose volume. The animals were kept in a controlled environment (targeted ranges: temperature 21 ± 3°C, humidity 30 -70%, 15 air changes per hour), with a light/dark cycle each of 12 hours, and under barrier (quarantine) conditions. Temperature and relative humidity were monitored continuously. All animals were subjected to the same environmental conditions. A standard certified commercial rodent diet (Rat and Mouse Cubes, Specialty Feeds Pty Ltd, Glen Forrest, WA, Australia) and tap water were provided to the animals ad libitum. Food supply was sterilized by autoclaving, and water […]
supply was sterilized by acidification with hydrochloric acid (pH 2.4-2.7) by Laboratory Animal Services, University of Adelaide (Adelaide, SA, Australia). Additional feed (a nimal seed, Magill Grain Store, Magill, SA, Australia), as well as wet standard feed was provided to all animals from Day 7 onwards, as a measure to minimize body w eight loss. The extent of adverse reaction was assessed during the study and mice were culled if severe adverse […]
The age range of the mice were 12-16 weeks at
Hep3B2.1-7 human hepatic carcinoma cells were sourced from the American Type Culture […]
Collection (ATCC; Virginia, USA).

HCC cells = test: Western blots for acetylated α-Tubulin and p21; type: cell-based; details: 1 µM or 3 µM, 24 hours (Fig. S1C)
Method: C. Western blots for acetylated α-Tubulin, total α-Tubulin, p21 and GAPDH (loading control).
Cells were treated with vehicle control (0.1 % DMSO), 1 µM or 3 µM resminostat for 24 hours. Grouped blots were composed from cropped parts of individual blots for each antibody. Original blots with exposures and indicated cropped areas can be found in the supplementary information.
D. Cell line screen determining the EC50s of resminostat in 74 cell lines representing 14 different ca ncer indications. In addition, peripheral blood mononuclear cells (PBMCs) from healthy donors were tested. Each dot represents an EC50.
(100×, 78440; Thermo Scientific, Massachusetts, US). Following incubation for 1 h at 4°C, […]
The protein concentration of the
Fisher Scientific, Massachusetts, US ). Equal amounts of protein lysates and a pre-stained […]
US) and transferred to PVDF membranes. The membranes were probed using the relevant […]
of the blots to X-ray films. […]
to adjust brightness and contrast across entire images. No other image manipulations were […]
intracellular FACS staining.

Compound: CN(C)Cc1ccc(S(=O)(=O)n2ccc(/C=C/C(=O)NO)c2)cc1 [resminostat, Resminostat]
- Survival ([1]; 15 mg/kg oral once daily): 10/12
- Tumour weight, Mean ([1]; 15 mg/kg oral once daily): 2.55 g
- Survival ([1]; 40 mg/kg oral once daily): 10/12
- Tumour weight, Mean ([1]; 40 mg/kg oral once daily): 1.83 g
- tumor weight compared to the vehicle control ([1]; daily resminostat 15 and 40 mg/kg, sorafenib 40 mg/kg, or combination (Fig. 1B)): significantly reduced tumor weight
- acetylation of α-Tubulin (HCC cells): hyperacetylation
- p21 protein (HCC cells): accumulation

— PMC8100298, “Histone deacetylase inhibitor resminostat in combination with sorafenib counteracts platelet-mediated pro-tumoral effects in hepatocellular carcinoma” (Scientific Reports, 2021)
